Test system: bean seeds
Assay: Plant growth and yield from bean seeds, daylight or darkness (Example 2)
Format: in vivo
Method: Three different treatments were explored on bean seeds to determine the effects of ribose (at two different doses) on plant growth and proliferation. [The three treatments include control (plain water), a 0.1332 M solution of ribose (5 g D-ribose dissolved in 250 ml water), and a 0.0666 M solution of ribose (5 g D-ribose dissolved in 500 ml water)]. The plants were kept under two different conditions, normal daylight and darkness. A total of six plants will be tested, with the conditions that each plant were tested at listed below. Treatments: [table] Each seed was planted under identical conditions (soil and pot size) and all at the same time. The environmental conditions (such as temperature and humidity), except for lighting, were kept constant for all the plants. Once potted, each seed received one to two tablespoons of treatment liquid (as mentioned above). A daily record was kept of the activity of each plant. Watering was done on every other day (or sooner if the soil was deemed too dry by the researcher), each again receiving one tablespoon of treatment liquid. Assessment of the effects of ribose fertilization was determined by measuring the time to the first appearance of a plant from the soil, the rate of growth, and leaf size. Table 3 represents the accumulated plant growth data from Example 2 and FIGS. 3 and 4 are graphic presentations of plant growth during light and dark conditions.

## O=C[C@H](O)[C@H](O)[C@H](O)CO [5/500, D-ribose]
Dark, Day 0 (17-Sep)
  Amount of Growth Between Measurements: 0
  Plant growth-height: 0
  Rate of Growth Between Measurements: 0
Dark, Day 3 (20-Sep)
  Amount of Growth Between Measurements: 0
  Plant growth-height: 0
  Rate of Growth Between Measurements: 0
Dark, Day 5 (22-Sep)
  Amount of Growth Between Measurements: 0
  Plant growth-height: 0
  Rate of Growth Between Measurements: 0
  Rate of Growth Overall Thru Date: 0
Dark, Day 7 (24-Sep)
  Amount of Growth Between Measurements: 5.2
  Plant growth-height: 5.2
  Rate of Growth Between Measurements: 2.60
  Rate of Growth Overall Thru Date: 0.74
Dark, Day 8 (25-Sep)
  Amount of Growth Between Measurements: 5.9
  Plant growth-height: 11.1
  Rate of Growth Between Measurements: 5.90
  Rate of Growth Overall Thru Date: 1.39
Dark, Day 9 (26-Sep)
  Amount of Growth Between Measurements: 9.7
  Plant growth-height: 20.8
  Rate of Growth Between Measurements: 9.70
  Rate of Growth Overall Thru Date: 2.31
Dark, Day 10 (27-Sep)
  Amount of Growth Between Measurements: 9.8
  Plant growth-height: 30.6
  Rate of Growth Between Measurements: 9.80
  Rate of Growth Overall Thru Date: 3.06
Dark, Day 11 (28-Sep)
  Amount of Growth Between Measurements: 5.2
  Plant growth-height: 35.8
  Rate of Growth Between Measurements: 5.20
  Rate of Growth Overall Thru Date: 3.25
Dark, Day 12 (29-Sep)
  Amount of Growth Between Measurements: 3.5
  Plant growth-height: 39.3
  Rate of Growth Between Measurements: 3.50
  Rate of Growth Overall Thru Date: 3.28
Dark, Day 13 (30-Sep)
  Amount of Growth Between Measurements: 5.5
  Plant growth-height: 44.8
  Rate of Growth Between Measurements: 5.50
  Rate of Growth Overall Thru Date: 3.45
Dark, Day 16 (3-Oct)
  Amount of Growth Between Measurements: 2
  Plant growth-height: 46.8
  Rate of Growth Between Measurements: 0.67
  Rate of Growth Overall Thru Date: 2.93
Dark, Day 19 (6-Oct)
  Amount of Growth Between Measurements: 0
  Plant growth-height: 46.8
  Rate of Growth Between Measurements: 0.00
  Rate of Growth Overall Thru Date: 2.46
Light, Day 0 (17-Sep)
  Amount of Growth Between Measurements: 0
  Plant growth-height: 0
  Rate of Growth Between Measurements: 0
Light, Day 3 (20-Sep)
  Amount of Growth Between Measurements: 0
  Plant growth-height: 0
  Rate of Growth Between Measurements: 0
Light, Day 5 (22-Sep)
  Amount of Growth Between Measurements: 0
  Plant growth-height: 0
  Rate of Growth Between Measurements: 0
  Rate of Growth Overall Thru Date: 0
Light, Day 7 (24-Sep)
  Amount of Growth Between Measurements: 0
  Plant growth-height: 0
  Rate of Growth Between Measurements: 0
  Rate of Growth Overall Thru Date: 0.00
Light, Day 8 (25-Sep)
  Amount of Growth Between Measurements: 0.5
  Plant growth-height: 0.5
  Rate of Growth Between Measurements: 0.50
  Rate of Growth Overall Thru Date: 0.06
Light, Day 9 (26-Sep)
  Amount of Growth Between Measurements: 1.6
  Plant growth-height: 2.1
  Rate of Growth Between Measurements: 1.60
  Rate of Growth Overall Thru Date: 0.23
Light, Day 10 (27-Sep)
  Amount of Growth Between Measurements: 8.4
  Plant growth-height: 10.5
  Rate of Growth Between Measurements: 8.40
  Rate of Growth Overall Thru Date: 1.05
Light, Day 11 (28-Sep)
  Amount of Growth Between Measurements: 6.1
  Plant growth-height: 16.6
  Rate of Growth Between Measurements: 6.10
  Rate of Growth Overall Thru Date: 1.51
Light, Day 12 (29-Sep)
  Amount of Growth Between Measurements: 5.9
  Plant growth-height: 22.5
  Rate of Growth Between Measurements: 5.90
  Rate of Growth Overall Thru Date: 1.88
Light, Day 13 (30-Sep)
  Amount of Growth Between Measurements: 3.8
  Plant growth-height: 26.3
  Rate of Growth Between Measurements: 3.80
  Rate of Growth Overall Thru Date: 2.02
Light, Day 16 (3-Oct)
  Amount of Growth Between Measurements: 2.1
  Plant growth-height: 28.4
  Rate of Growth Between Measurements: 0.70
  Rate of Growth Overall Thru Date: 1.78
Light, Day 19 (6-Oct)
  Amount of Growth Between Measurements: 0.6
  Plant growth-height: 29
  Rate of Growth Between Measurements: 0.20
  Rate of Growth Overall Thru Date: 1.53
